Data published in ChEMBL document CHEMBL4308854, “Novel indole-thiazolidinone conjugates: Design, synthesis and whole-cell phenotypic evaluation as a novel class of antimicrobial agents” (Eur J Med Chem, 2018).
Values after ≈ are worked out from the molar mass of the structure shown.

Legend:
Escherichia coli = assay: Antibacterial activity against Escherichia coli RCMB 010052 assessed as diameter of zone inhibition after 24 hrs by agar well diffusion assay; type: functional
Aspergillus fumigatus [1] = assay: Antifungal activity against Aspergillus fumigatus RCMB 02568 after 24 hrs by serial dilution method; type: functional; conditions: RCMB 02568, 24 h
Aspergillus fumigatus [2] = assay: Antifungal activity against Aspergillus fumigatus RCMB 02568 assessed as diameter of zone inhibition after 48 hrs by agar well diffusion assay; type: functional
Mycolicibacterium aurum = assay: Antitubercular activity against Mycobacterium aurum infected in mouse RAW264.7 cells measured after 48 hrs; type: functional
WI-38 = assay: Cytotoxicity against human WI38 cells by MTT assay; type: cell-based
CCRF-CEM = assay: Growth inhibition of human CCRF-CEM cells assessed as cell growth at 10^-5 M incubated for 48 hrs by sulforhodamine B assay relative to control; type: cell-based; parameters: scale not given: the % may be the effect or the level left; conditions: 10 µM
HL-60(TB) = assay: Growth inhibition of human HL-60(TB) cells assessed as cell growth at 10^-5 M incubated for 48 hrs by sulforhodamine B assay relative to control; type: cell-based; parameters: scale not given: the % may be the effect or the level left; conditions: 10 µM
MOLT-4 = assay: Growth inhibition of human MOLT4 cells assessed as cell growth at 10^-5 M incubated for 48 hrs by sulforhodamine B assay relative to control; type: cell-based; parameters: scale not given: the % may be the effect or the level left; conditions: molt-4, 48 h, 10 µM
RPMI-8226 = assay: Growth inhibition of human RPMI8226 cells assessed as cell growth at 10^-5 M incubated for 48 hrs by sulforhodamine B assay relative to control; type: cell-based; parameters: scale not given: the % may be the effect or the level left; conditions: rpmi-8226, 48 h, 10 µM
A549 = assay: Growth inhibition of human A549 cells assessed as cell growth at 10^-5 M incubated for 48 hrs by sulforhodamine B assay relative to control; type: cell-based; parameters: scale not given: the % may be the effect or the level left; conditions: a549, 48 h, 10 µM
EKVX = assay: Growth inhibition of human EKVX cells assessed as cell growth at 10^-5 M incubated for 48 hrs by sulforhodamine B assay relative to control; type: cell-based; parameters: scale not given: the % may be the effect or the level left; conditions: 10 µM
HOP-62 = assay: Growth inhibition of human HOP62 cells assessed as cell growth at 10^-5 M incubated for 48 hrs by sulforhodamine B assay relative to control; type: cell-based; parameters: scale not given: the % may be the effect or the level left; conditions: hop-62, 48 h, 10 µM
HOP-92 = assay: Growth inhibition of human HOP92 cells assessed as cell growth at 10^-5 M incubated for 48 hrs by sulforhodamine B assay relative to control; type: cell-based; parameters: scale not given: the % may be the effect or the level left; conditions: hop-92, 48 h, 10 µM
NCI-H226 = assay: Growth inhibition of human NCI-H226 cells assessed as cell growth at 10^-5 M incubated for 48 hrs by sulforhodamine B assay relative to control; type: cell-based; parameters: scale not given: the % may be the effect or the level left; conditions: nci-h226, 48 h, 10 µM
NCI-H522 = assay: Growth inhibition of human NCI-H522 cells assessed as cell growth at 10^-5 M incubated for 48 hrs by sulforhodamine B assay relative to control; type: cell-based; parameters: scale not given: the % may be the effect or the level left; conditions: nci-h522, 48 h, 10 µM
COLO 205 = assay: Growth inhibition of human COLO205 cells assessed as cell growth at 10^-5 M incubated for 48 hrs by sulforhodamine B assay relative to control; type: cell-based; parameters: scale not given: the % may be the effect or the level left; conditions: colo 205, 48 h, 10 µM
HCT-116 = assay: Growth inhibition of human HCT116 cells assessed as cell growth at 10^-5 M incubated for 48 hrs by sulforhodamine B assay relative to control; type: cell-based; parameters: scale not given: the % may be the effect or the level left; conditions: hct-116, 48 h, 10 µM
SW-620 = assay: Growth inhibition of human SW620 cells assessed as cell growth at 10^-5 M incubated for 48 hrs by sulforhodamine B assay relative to control; type: cell-based; parameters: scale not given: the % may be the effect or the level left; conditions: sw-620, 48 h, 10 µM
SF-295 = assay: Growth inhibition of human SF295 cells assessed as cell growth at 10^-5 M incubated for 48 hrs by sulforhodamine B assay relative to control; type: cell-based; parameters: scale not given: the % may be the effect or the level left; conditions: sf-295, 48 h, 10 µM
SF-539 = assay: Growth inhibition of human SF539 cells assessed as cell growth at 10^-5 M incubated for 48 hrs by sulforhodamine B assay relative to control; type: cell-based; parameters: scale not given: the % may be the effect or the level left; conditions: sf-539, 48 h, 10 µM
SNB-19 = assay: Growth inhibition of human SNB19 cells assessed as cell growth at 10^-5 M incubated for 48 hrs by sulforhodamine B assay relative to control; type: cell-based; parameters: scale not given: the % may be the effect or the level left; conditions: snb-19, 48 h, 10 µM
U-251 = assay: Growth inhibition of human U251 cells assessed as cell growth at 10^-5 M incubated for 48 hrs by sulforhodamine B assay relative to control; type: cell-based; parameters: scale not given: the % may be the effect or the level left; conditions: u-251, 48 h, 10 µM
LOX IMVI = assay: Growth inhibition of human LOXIMVI cells assessed as cell growth at 10^-5 M incubated for 48 hrs by sulforhodamine B assay relative to control; type: cell-based; parameters: scale not given: the % may be the effect or the level left; conditions: 10 µM
M14 = assay: Growth inhibition of human M14 cells assessed as cell growth at 10^-5 M incubated for 48 hrs by sulforhodamine B assay relative to control; type: cell-based; parameters: scale not given: the % may be the effect or the level left; conditions: m14, 48 h, 10 µM
MDA-MB-435 = assay: Growth inhibition of human MDA-MB-435 cells assessed as cell growth at 10^-5 M incubated for 48 hrs by sulforhodamine B assay relative to control; type: cell-based; parameters: scale not given: the % may be the effect or the level left; conditions: mda-mb-435, 48 h, 10 µM
UACC-257 = assay: Growth inhibition of human UACC257 cells assessed as cell growth at 10^-5 M incubated for 48 hrs by sulforhodamine B assay relative to control; type: cell-based; parameters: scale not given: the % may be the effect or the level left; conditions: uacc-257, 48 h, 10 µM
UACC-62 = assay: Growth inhibition of human UACC62 cells assessed as cell growth at 10^-5 M incubated for 48 hrs by sulforhodamine B assay relative to control; type: cell-based; parameters: scale not given: the % may be the effect or the level left; conditions: uacc-62, 48 h, 10 µM
OVCAR-5 = assay: Growth inhibition of human OVCAR5 cells assessed as cell growth at 10^-5 M incubated for 48 hrs by sulforhodamine B assay relative to control; type: cell-based; parameters: scale not given: the % may be the effect or the level left; conditions: ovcar-5, 48 h, 10 µM
RXF 393 = assay: Growth inhibition of human RXF393 cells assessed as cell growth at 10^-5 M incubated for 48 hrs by sulforhodamine B assay relative to control; type: cell-based; parameters: scale not given: the % may be the effect or the level left; conditions: rxf 393, 48 h, 10 µM
UO-31 = assay: Growth inhibition of human UO31 cells assessed as cell growth at 10^-5 M incubated for 48 hrs by sulforhodamine B assay relative to control; type: cell-based; parameters: scale not given: the % may be the effect or the level left; conditions: uo-31, 48 h, 10 µM
DU-145 = assay: Growth inhibition of human DU145 cells assessed as cell growth at 10^-5 M incubated for 48 hrs by sulforhodamine B assay relative to control; type: cell-based; parameters: scale not given: the % may be the effect or the level left; conditions: du-145, 48 h, 10 µM
MDA-MB-231 = assay: Growth inhibition of human MDA-MB-231 cells assessed as cell growth at 10^-5 M incubated for 48 hrs by sulforhodamine B assay relative to control; type: cell-based; parameters: scale not given: the % may be the effect or the level left; conditions: mda-mb-231, 48 h, 10 µM
BT-549 = assay: Growth inhibition of human BT549 cells assessed as cell growth at 10^-5 M incubated for 48 hrs by sulforhodamine B assay relative to control; type: cell-based; parameters: scale not given: the % may be the effect or the level left; conditions: bt-549, 48 h, 10 µM
[3] = tested on: Mycobacterium tuberculosis; assay: Potency index, ratio of isoniazid MIC to compound MIC for antitubercular activity against Mycobacterium tuberculosis RCMB 010126 clinical isolate; type: functional
Staphylococcus aureus = assay: Potency index, ratio of ciprofloxacin MIC to compound MIC for Staphylococcus aureus RCMB 010028; type: functional
Pseudomonas aeruginosa = assay: Potency index, ratio of ciprofloxacin MIC to compound MIC for Pseudomonas aeruginosa RCMB 010043; type: functional

Row | Compound | diameter of the inhibition zone (DIZ) (Escherichia coli) [mm] | MIC (Aspergillus fumigatus [1]) [µg/mL] | diameter of the inhibition zone (DIZ) (Aspergillus fumigatus [2]) [mm] | MIC (Mycolicibacterium aurum) [µg/mL] | IC50 (WI-38) [µg/mL] | Activity (CCRF-CEM) [%] | Activity (HL-60(TB)) [%] | Activity (MOLT-4) [%] | Activity (RPMI-8226) [%] | Activity (A549) [%] | Activity (EKVX) [%] | Activity (HOP-62) [%] | Activity (HOP-92) [%] | Activity (NCI-H226) [%] | Activity (NCI-H522) [%] | Activity (COLO 205) [%] | Activity (HCT-116) [%] | Activity (SW-620) [%] | Activity (SF-295) [%] | Activity (SF-539) [%] | also measured
1 | CCOC(=O)c1sc(/N=C2\NC(=O)/C(=C3/C(=O)N(Cc4ccccc4)c4ccc(Cl)cc43)S2)nc1C | 23.4 | 1.95 (≈ 3.62 µM) | 21.3 | 50 (≈ 92.8 µM) | 52.1 (≈ 96.7 µM) | 98.38 | 105.41 | 97.7 | 99.02 | 97.17 | 100.9 | 98.01 | 92.11 | 94.7 | 90.82 | 101.47 | 96.07 | 98.41 | 103.03 | 99.4 | Activity (SNB-19): 103.82%; Activity (U-251): 99.74%; Activity (LOX IMVI): 96.03%; Activity (M14): 98.8%; Activity (MDA-MB-435): 107.3%; Activity (UACC-257): 106.14%; Activity (UACC-62): 103.68%; Activity (OVCAR-5): 112.65%; Activity (RXF 393): 105.33%; Activity (UO-31): 91.72%; Activity (DU-145): 104.75%; Activity (MDA-MB-231): 100.41%; Activity (BT-549): 103.71%; Ratio [3]: 2; Ratio (Staphylococcus aureus): 2; Ratio (Pseudomonas aeruginosa): 2
2 | CC(=O)c1sc(/N=C2\NC(=O)/C(=C3/C(=O)N(C)c4ccc(Cl)cc43)S2)nc1C | 25.1 | 0.98 (≈ 2.26 µM) | 22.2 | 25 (≈ 57.7 µM) | 19.5 (≈ 45 µM) | 111 | 98.79 | 105.36 | 110.22 | 105.29 | 95.78 | 116.23 | 95.24 | 94.2 | 88.75 | 108.28 | 94.04 | 119.01 | 101.25 | 94.05 | Activity (SNB-19): 98.6%; Activity (U-251): 113.76%; Activity (LOX IMVI): 88.14%; Activity (M14): 100.08%; Activity (MDA-MB-435): 101.04%; Activity (UACC-257): 114.2%; Activity (UACC-62): 84.61%; Activity (OVCAR-5): 104.59%; Activity (RXF 393): 106.08%; Activity (UO-31): 90.16%; Activity (DU-145): 100.78%; Activity (MDA-MB-231): 91.15%; Activity (BT-549): 94.91%; Ratio [3]: 2; Ratio (Staphylococcus aureus): 2; Ratio (Pseudomonas aeruginosa): 4
